Data published in patent publication US9765035B2 (priority 2013, dated 2017).
Where two headings read alike, the source gives them in different places.

Experiments:
human PRMT6 = human PRMT6 (Homo sapiens, UniProt Q96LA8); test: biochemical
Source text: General Materials. S-adenosylmethionine (SAM), S-adenosylhomocysteine (SAH), bicine, Tween20, dimethylsulfoxide (DMSO), bovine skin gelatin (BSG), sodium butyrate and Tris(2-carboxyethyl)phosphine hydrochloride solution (TCEP) were purchased from Sigma-Aldrich at the highest level of purity possible. ^3H-SAM was purchase from American Radiolabeled Chemicals with a specific activity of 80 Ci/mmol. 384-well streptavidin Flashplates were purchased from PerkinElmer.
Substrates. Peptide representative of human histone H4 residues 36-50 was synthesized with an N-terminal linker-affinity tag motif and a C-terminal amide cap by 21st Century Biochemicals. The peptide was purified by high-performance liquid chromatography (HPLC) to greater than 95% purity and confirmed by liquid chromatography mass spectrometry (LC-MS). The sequence was Biot-Ahx-[…]-amide and contained a monomethylated lysine at position 44 (SEQ ID NO.:5).
Molecular Biology: Full-length human PRMT6 (NM_018137.2) transcript clone was amplified from an HEK 293 cDNA library, incorporating a flanking 5′ sequence encoding a FLAG tag ([…]) (SEQ ID NO.:6) fused directly to Ser 2 of PRMT6 and a 3′ sequence encoding a hexa His sequence (HHHHHH) (SEQ ID NO.: 17) fused directly to Asp 375. The amplified gene was subcloned into pFastBacMam (Viva Biotech).
Protein Expression. Recombinant baculovirus were generated according to Bac-to-Bac kit instructions (Life Technologies). […] Infections were carried out at 37° C. for 48 hours, harvested by centrifugation, and stored at −80° C. for purification.
Protein Purification. […] Column was washed with 20 mM imidazole in the same buffer and Flag-PRMT6-His was eluted with 150 mM imidazole. Pooled fractions were dialysed against buffer Ni-A and further purified by anti-flag M2 affinity chromatography. Flag-PRMT6-His was eluted with 200 ug/ml FLAG peptide in the same buffer. Pooled fractions were dialysed in 20 mM Tris, 150 mM NaCl, 10% glycerol and 5 mM β-mercaptoethanol, pH 7.8. The purity of recovered protein was 95%.
General Procedure for PRMT6 Enzyme Assays on Peptide Substrates. The assays were all performed in a buffer consisting of 20 mM Bicine (pH=7.6), 1 mM TCEP, 0.005% BSG, and 0.002% Tween 20, prepared on the day of use. Compounds in 100% DMSO (1 ul) were spotted into a polypropylene 384-well V-bottom plates (Greiner) using a Platemate Plus outfitted with a 384-channel head (Thermo Scientific). DMSO (1 ul) was added to Columns 11, 12, 23, 24, rows A-H for the maximum signal control and 1 ul of SAH, a known product and inhibitor of PRMT6, was added to columns 11, 12, 23, 24, rows I-P for the minimum signal control. A cocktail (40 ul) containing the PRMT6 enzyme was added by Multidrop Combi (Thermo-Fisher). The compounds were allowed to incubate with PRMT6 for 30 min at room temperature, then a cocktail (10 ul) containing SAM and peptide was added to initiate the reaction (final volume=51 ul). The final concentrations of the components were as follows: PRMT6 was 1 nM, ^3H-SAM was 200 nM, non-radiolabeled SAM was 250 nM, peptide was 75 nM, SAH in the minimum signal control wells was 1 mM, and the DMSO concentration was 2%. The assays were stopped by the addition of non-radiolabeled SAM (10 ul) to a final concentration of 400 uM, which dilutes the ^3H-SAM to a level where its incorporation into the peptide substrate is no longer detectable. 50 ul of the reaction in the 384-well polypropylene plate was then transferred to a 384-well Flashplate and the biotinylated peptides were allowed to bind to the streptavidin surface for at least 1 hour before being washed once with 0.1% Tween20 in a Biotek EL×405 plate washer. The plates were then read in a PerkinElmer TopCount plate reader to measure the quantity of ^3H-labeled peptide bound to the Flashplate surface, measured as disintegrations per minute (dpm) or alternatively, referred to as counts per minute (cpm). […]

[1] = tested on: RKO cells, mono-methyl arginine; test: RKO Methylation Assay (In Cell Western for mono-methyl arginine); type: cell-based; conditions: Homo sapiens, 72 hours
Source text: RKO adherent cells were purchased from ATCC (American Type Culture Collection), Manassas, Va., USA. DMEM/Glutamax medium, penicillin-streptomycin, heat inactivated fetal bovine serum, 0.05% trypsin and D-PBS were purchased from Life Technologies, Grand Island, N.Y., USA. Odyssey blocking buffer, 800CW goat anti-rabbit IgG (H+L) antibody, and Licor Odyssey infrared scanner were purchased from Licor Biosciences, Lincoln, Nebr., USA. Mono-methyl arginine antibody was purchased from Cell Signaling Technology, Danvers, Mass., USA. Methanol was purchased from VWR, Franklin, Mass., USA. 10% Tween 20 was purchased from KPL, Inc., Gaithersburg, Md., USA. DRAQ5 was purchased from Biostatus Limited, Leicestershire, UK.
RKO adherent cells were maintained in growth medium (DMEM/Glutamax medium supplemented with 10% v/v heat inactivated fetal bovine serum and 100 units/mL penicillin-streptomycin) and cultured at 37° C. under 5% CO2.
Cell Treatment, in Cell Western (ICW) for Detection of Mono-Methyl Arginine and DNA Content. […] Compound (100 nL) from a 96-well source plate was added directly to 384 well cell plate. Plates were incubated at 37° C., 5% CO2 for 72 hours. After three days of incubation, plates were brought to room temperature outside of the incubator for ten minutes and blotted on paper towels to remove cell media. 50 μL of ice cold 100% methanol was added directly to each well and incubated for 30 min at room temperature. After 30 min, plates were transferred to a Biotek EL406 plate washer and washed 2 times with 100 μL per well of wash buffer (1×PBS). Next 60 μL per well of Odyssey blocking buffer (Odyssey Buffer with 0.1% Tween 20 (v/v)) were added to each plate and incubated 1 hour at room temperature. Blocking buffer was removed and 20 μL per well of primary antibody was added (mono-methyl arginine diluted 1:200 in Odyssey buffer with 0.1% Tween 20 (v/v)) and plates were incubated overnight (16 hours) at 4° C. Plates were washed 5 times with 100 μL per well of wash buffer. […] The plates were washed 5 times with 100 μL per well wash buffer then 2 times with 100 μL per well of water. Plates were allowed to dry at room temperature then imaged on the Licor Odyssey machine which measures integrated intensity at 700 nm and 800 nm wavelengths. Both 700 and 800 channels were scanned.
Calculations: First, the ratio for each well was determined by:
Each plate included fourteen control wells of DMSO only treatment (minimum activation) as well as fourteen control wells for maximum activation treated with 20 μM of a reference compound. The average of the ratio values for each control type was calculated and used to determine the percent activation for each test well in the plate. Reference compound was serially diluted three-fold in DMSO for a total of nine test concentrations, beginning at 20 μM. Percent activation was determined and EC30 curves were generated using triplicate wells per concentration of compound.

Chain of human PRMT6 (Q96LA8 with tags, fused parts or gaps): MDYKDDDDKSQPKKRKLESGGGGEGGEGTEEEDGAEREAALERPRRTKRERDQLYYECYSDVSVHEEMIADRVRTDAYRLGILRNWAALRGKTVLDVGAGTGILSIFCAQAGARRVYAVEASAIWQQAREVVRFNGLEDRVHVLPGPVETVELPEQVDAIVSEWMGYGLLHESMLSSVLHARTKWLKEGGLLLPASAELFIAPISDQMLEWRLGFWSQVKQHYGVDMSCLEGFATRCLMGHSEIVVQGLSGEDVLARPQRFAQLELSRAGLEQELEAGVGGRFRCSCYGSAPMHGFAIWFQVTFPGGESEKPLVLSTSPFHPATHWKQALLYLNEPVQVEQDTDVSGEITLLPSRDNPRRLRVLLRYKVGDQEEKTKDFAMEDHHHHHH

CNCCN(C)Cc1n[nH]c2ccc(OC(C)C(C)C)cc12 (stereo not shown) [Compound 4]
IC50 (human PRMT6; biochemical evaluation, peptide substrate, read-out: PRMT6 IC50): < 100 nM | IC50 (human PRMT6; single experiment or average of multiple experiments, read-out: PRMT6 biochemical evaluation (numerical)): 36.4 nM | EC30 ([1]; In Cell Western EC30, RKO cells, single experiment or average of multiple experiments, read-out: RGG ICW): 1680 nM | EC30 ([1]; In Cell Western, RKO cells, read-out: RGG ICW EC30): < 3000 nM
